Data on three compounds can be found in ChEMBL document CHEMBL6109169, “1,6-Naphthridine Compounds as SMARCA2 Inhibitors for Treating Non-small Cell Lung Cancer” (ACS Med Chem Lett, 2025).

The target in this assay is SWI/SNF-related matrix-associated actin-dependent regulator of chromatin subfamily A member 2 (Homo sapiens, UniProt P51531). The assay is described as follows: Inhibition of N-terminal hexa-histidine-tagged truncated human SMARCA2 (470 to 1590 residues) extracted from Sf9 insect cells using poly(dA-dT) linear dsDNA as substrate preincubated for 30 mins followed by substrate/ATP addition measured after 180 mins by ADP-Glo assay. It is filed as cell-free. On the technique in general: ADP-Glo first removes unused ATP, then detects ADP through luciferase.
Chain of SWI/SNF-related matrix-associated actin-dependent regulator of chromatin subfamily A member 2 (P51531 whole entry, the tested form may be a part): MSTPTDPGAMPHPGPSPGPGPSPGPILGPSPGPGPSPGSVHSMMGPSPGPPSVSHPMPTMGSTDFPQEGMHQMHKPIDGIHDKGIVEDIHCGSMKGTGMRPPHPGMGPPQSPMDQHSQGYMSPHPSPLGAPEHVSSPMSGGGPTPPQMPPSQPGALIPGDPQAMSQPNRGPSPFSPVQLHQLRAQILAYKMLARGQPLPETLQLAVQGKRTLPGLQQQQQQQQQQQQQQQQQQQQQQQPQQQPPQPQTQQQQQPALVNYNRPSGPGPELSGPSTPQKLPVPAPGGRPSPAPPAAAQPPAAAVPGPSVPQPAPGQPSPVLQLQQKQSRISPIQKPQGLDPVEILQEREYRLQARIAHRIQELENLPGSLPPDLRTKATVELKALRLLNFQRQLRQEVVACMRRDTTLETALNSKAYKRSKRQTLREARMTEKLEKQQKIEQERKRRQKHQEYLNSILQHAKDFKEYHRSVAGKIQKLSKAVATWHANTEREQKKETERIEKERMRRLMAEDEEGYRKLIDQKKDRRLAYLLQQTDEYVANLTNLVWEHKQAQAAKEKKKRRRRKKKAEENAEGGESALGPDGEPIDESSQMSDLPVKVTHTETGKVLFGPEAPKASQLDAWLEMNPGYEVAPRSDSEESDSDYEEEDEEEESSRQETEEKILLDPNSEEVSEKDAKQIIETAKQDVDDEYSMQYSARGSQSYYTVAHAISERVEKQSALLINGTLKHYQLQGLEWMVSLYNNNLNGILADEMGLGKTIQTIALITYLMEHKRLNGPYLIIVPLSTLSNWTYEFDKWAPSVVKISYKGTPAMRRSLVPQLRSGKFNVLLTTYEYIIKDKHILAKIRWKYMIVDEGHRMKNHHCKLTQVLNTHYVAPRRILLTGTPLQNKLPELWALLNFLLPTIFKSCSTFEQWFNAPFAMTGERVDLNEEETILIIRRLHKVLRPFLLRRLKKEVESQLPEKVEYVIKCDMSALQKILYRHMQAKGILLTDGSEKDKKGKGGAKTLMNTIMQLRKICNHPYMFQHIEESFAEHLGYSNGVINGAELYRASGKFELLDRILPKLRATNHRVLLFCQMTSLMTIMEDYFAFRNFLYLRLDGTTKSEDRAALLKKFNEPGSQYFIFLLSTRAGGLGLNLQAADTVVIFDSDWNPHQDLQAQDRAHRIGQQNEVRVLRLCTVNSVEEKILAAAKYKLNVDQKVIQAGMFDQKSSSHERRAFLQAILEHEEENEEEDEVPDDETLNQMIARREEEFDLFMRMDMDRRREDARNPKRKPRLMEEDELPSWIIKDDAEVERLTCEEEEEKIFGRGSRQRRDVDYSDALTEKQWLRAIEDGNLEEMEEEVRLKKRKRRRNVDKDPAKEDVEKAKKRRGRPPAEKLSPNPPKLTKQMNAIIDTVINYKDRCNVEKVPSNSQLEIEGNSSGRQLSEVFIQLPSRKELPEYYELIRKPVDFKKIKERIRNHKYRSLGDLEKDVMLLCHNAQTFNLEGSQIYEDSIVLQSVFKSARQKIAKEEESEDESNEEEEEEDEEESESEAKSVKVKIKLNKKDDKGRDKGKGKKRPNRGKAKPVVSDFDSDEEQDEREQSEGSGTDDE

Take `CCS(=O)(=O)N1CCc2ccc(C(=O)NCc3cc4nc(-c5cccc(N6C[C@@H](C)O[C@@H](C)C6)n5)ccc4cn3)cc21`: it took 3.6 nM to reach half-maximal inhibition (IC50). Under `C[C@@H]1CN(c2cccc(-c3ccc4cnc(CNC(=O)c5cc(Cl)c6c(c5)N(S(C)(=O)=O)CC6)cc4n3)n2)C[C@H](C)O1` stands 2.27 nM; under `C=CCS(=O)(=O)N1CCc2ccc(C(=O)NCc3cc4nc(-c5cccc(N6C[C@@H](C)O[C@@H](C)C6)n5)ccc4cn3)cc21`, 8.14 nM.
